Experimental data reported in PMC3528769, “Comparative Study of the Fatty Acid Binding Process of a New FABP from Cherax quadricarinatus by Fluorescence Intensity, Lifetime and Anisotropy” (PLoS ONE, 2012).

Molecular target: Cq-FABP (Cherax quadricarinatus, UniProt L0I6Z9)
Assay: Time-resolved Trp fluorescence lifetime (single-photon counting) with ANS and PA
Type: binding
Details: for FRET efficiency: from lifetimes
Description: The distribution of fluorescence lifetimes of tryptophan was determined by monitoring the intensity decay, I(t), using the single-photon counting technique [27]–[31]. Briefly, the excitation light pulse source was a Ti:sapphire laser (Mai Tai femtosecond laser, Spectra Physics, Mountain View, CA, USA) associated with a third harmonic generator tuned to 296 nm. The laser frequency was reduced from 80 to 8 MHz using a pulse picker (Spectra Physics). Fluorescence emission was detected by a microchannel plate photomultiplier (Hamamatsu model R3809U-05) through a monochromator (ARC SpectraPro-150) set at 340 nm (Δλ = 15 nm) with the emission polarizer set at the magic angle (54.7°). A time-correlated single-photon counting SPC-430 card (Becker–Hickl, Berlin, Germany) was used for the acquisition. Experiments were performed at 25°C using 5 µM Cq-FABP in buffer C. The average fluorescence lifetime values (τm), as reported in Table 1, were calculated from the lifetime distributions recovered by the maximum entropy method, [29], [32]. For example, Cq-FABP alone was characterized by three fluorescence lifetimes (τ1 = 0.6 ns (6%), τ2 = 2.67 ns (53%), τ3 = 3.89 (41%); τm = 3.04 ns).

[1] = 5 µM Cq-FABP + 50 µM ANS + 70 µM PA
[2] = 5 µM Cq-FABP + 200 µM ANS + 70 µM PA

Cq-FABP, sequence (L0I6Z9 entry or part of it): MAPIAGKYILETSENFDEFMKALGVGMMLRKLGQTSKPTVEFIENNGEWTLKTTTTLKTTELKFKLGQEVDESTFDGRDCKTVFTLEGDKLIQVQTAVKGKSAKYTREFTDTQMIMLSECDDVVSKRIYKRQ

Structure (SMILES): CCCCCCCCCCCCCCCC(=O)O [PA, Palmitic acid]
- Average fluorescence Lifetime, τm [1]: 2.77 ns
- FRET efficiency [1]: 8.9%
- Average fluorescence Lifetime, τm (5 µM Cq-FABP + 70 µM PA): 2.96 ns
- Average fluorescence Lifetime, τm [2]: 2.34 ns
- FRET efficiency [2]: 23%
